Data on two compounds can be found in patent publication US4863969A, “Treatment of premalignant lesions and certain malignant tumors” (priority 1985, dated 1989).

A short description of data set [1]: Tolerability and toxicity. To be noted: given intraperitoneally and given orally. In kind it is in vivo.
For data set [2] the following is noted: Rydell et al. 1982; Kistler 1981; Loeliger et al. 1980; cited from earlier work.
In data set [3] the test system is squamous metaplasia of the vaginal epithelium. Kind of data set: Antimetaplastic activity in ovarectomized rats (hormone-induced squamous metaplasia, vaginal smear). It is filed as in vivo, female Holtzmann rats. The procedure: (C) The antimetaplastic activity of compound Ia was determined in rats according to the following method. Female Holtzmann rats weighing approximately 100 g were ovarectomized under Thiogenal narcosis after an adaptation period of 8 days and were used in the experiment after a further 14 days. In each case two animals were placed in a cage and had free access to feed which contained approximately 2000 IU of analytically determined vitamin A. Prior to the oral administration of the test compound the animals were treated subcutaneously each day for 6 successive days with the hormone mixture of 1 μg of estradiol benzoate and 250 μg of testosterone propionate dissolved in 0.1 ml of sesame oil. The parenteral hormone administration led to the formation of a clear granular stage in the vaginal smear, i.e. a squamous metaplasia. 2 days after the oral administration of the test substance the result of the reaction was again read off on the vaginal epithelium. The area method according to Behrens and Karber was employed to calculate the average effective dosages.

As to `CC(=Cc1ccccc1)c1ccc2c(c1)C(C)(C)CCC2(C)C` [compound of formula I, 1,2,3,4-tetrahydro-1,1,4,4-tetramethyl-6-(alpha-methylstyryl)naphthalene], in data set [1], the Toxicity entry is reported as “relatively non-toxic”. In addition, the “Biological activity in preliminary screening tests” value in data set [2] is “biologically inactive”.

As for `CC1=C(/C=C/C(C)=C/C=C/C(C)=C/C(=O)O)C(C)(C)CCC1` [all-trans vitamin A acid, reference compound], in data set [3] (all-trans vitamin A acid = 100%), the “Relative activity (antimetaplastic)” value came out at 100%. Besides, in data set [3] (oral, read 2 days after administration, area method of Behrens and Karber), the “Antimetaplastic effect (average effective / protective dosage)” value is 35.7 µg.
